Measurements from patent publication US20260167614A1, “IDENTIFICATION OF SMALL MOLECULES THAT RECRUIT AND ACTIVATE RNASE L” (UNIVERSITY OF FLORIDA RESEARCH FOUNDATION, INCORPORATED, priority 2022, published 2026).

What was measured:
Type in all cases: cell-based
[1] = system: MCF-10A cells; assay: Boyden chamber invasion assay, MCF-10A with forced pre-miR-21 expression; conditions: WT pre-miR-21 plasmid
Description: (§1) The effect of the RiboTAC on a miR-21-associated invasive phenotype was next assessed. Treatment with 5 μM of 7 reduced the invasiveness of MDA-MB-231 cells, by ˜30% (p<0.05) (FIG. 4E-F). […] While forced expression of a mutant pre-miR-21 in which the Dovitinib-binding site is mutated also produced an invasive phenotype, the cells were insensitive to treatment with 7 (FIG. 12).
(§2) MCF-10A cells were first transfected with either a plasmid expressing pre-miR-21 (Addgene; catalog #21114) or a plasmid encoding a pre-miR-21 mutant (custom purchased from GenScript USA, Inc, FIG. 8) using jetPRIME (Polyplus), per the manufacturer's protocol (3.2 μg of plasmid per 60 mm dish). After transfection, cells (50,000 per insert) were seeded into the hanging inserts in serum free growth medium, with or without compound (0.1% final DMSO concentration). The assay was then completed as described for the MDA-MB-231 cells.

[2] = system: MCF-10A cells; assay: Boyden chamber invasion assay, MCF-10A with mutant pre-miR-21; conditions: Dovitinib-binding site mutated
Description: as §1, §2

[3] = system: MDA-MB-231 cells; assay: Boyden chamber invasion assay, MDA-MB-231; conditions: 5 μM
Description: as §1
Boyden Chamber Invasion Assay. Hanging cell culture inserts (for 24-well plates, 8.0 μm) were pre-coated with 0.3 mg/mL Matrigel (Corning, 356234). MDA-MB-231 cells (75,000 per insert) were then seeded into the hanging inserts in serum free growth medium, with or without compound (0.1% final DMSO concentration). The inserts were then placed into 24-well plates containing complete. After 16-24 h, the medium was removed, and the hanging inserts were washed with 1×DPBS. Cells were fixed for 20 min at room temperature with 4% (w/v) paraformaldehyde in 1×DPBS. The inserts were washed twice with 1×DPBS and then stained with 0.1% (w/v) crystal violet in 20% methanol (v/v) for 20 min. The inserts were then washed twice with Nanopure water and once with 1×DPBS. Cells on the surface of the Matrigel (noninvasive) were removed with cotton swabs and invading cells were imaged under a Leica DMI3000 B […] fluorescent microscope (the number of invasive cells in 4 fields of view per sample).

[4] = system: mature and pre-miR-21; assay: RT-qPCR in RNase L-Targeting sgRNA (knock-down) MDA-MB-231 cells; conditions: RNase L knocked down by CRISPR
Text: Two CRISPR-modified MDA-MB-231 cell lines with either a scrambled control guide RNA (“Control sgRNA”; RNase L is expressed) or with an RNase L-targeting guide RNA (“RNase L-Targeting sgRNA”; RNase L protein abundance is knocked down) were used to complete these studies.
Generation of the RNase L Knockdown MDA-MB-231 Cell Line. RNase L knockdown and control MDA-MB-231 cell lines were generated by CRISPR as previously described.^1 Briefly, lentiviral constructs containing Cas9 and gRNAs against RNASEL or a negative control were purchased from Transomic Technologies, Inc. [catalog #TEVH-1249025-pCLIP-ALL-hCMVPuro (KD+) and TELA1015 (KD−)] and packaged by transfecting HEK293T cells (ATCC, catalog #CRL-11268) using Lipofectamine 2000 transfection reagent (Invitrogen; catalog #11668500) and Cellecta packaging mix (Cellecta, catalog #CPCP-K2A) in Opti-MEM (Gibco, catalog #31985070). Virus supernatants were harvested 72 h post-transfection and filtered through a 0.45 μm PES filter (mdi Membrane Technologies Inc., catalog #SYPL0602MNXX204). […]
RNA Isolation and Quantitative Real-Time Polymerase Chain Reaction (RT-qPCR). […] RT-qPCR was performed on a QuantStudio5™ Real-Time PCR Instrument (Applied Biosystems) using Power SYBR Green Master Mix (Applied Biosystems), and the resulting data were analyzed using the ΔΔCt method.

CNC(=O)[C@H](c1ccccc1)N(C)Cc1ccc(-c2cccc(-c3sccc3NC(=O)CCOCCOCCOCCC(=O)NCCN3CCN(c4ccc5nc(-c6c(N)c7c(F)cccc7[nH]c6=O)[nH]c5c4)CC3)c2)cc1 [RiboTAC 7, (S)—N-(2-(4-(2-(4-amino-5-fluoro-2-oxo-1,2-dihydroquinolin-3-yl)-1H-benzo[d]imidazol-6-yl)piperazin-1-yl)ethyl)-3-(2-(2-(3-((2-(4′-((methyl(2-(methylamino)-2-oxo-1-phenylethyl)amino)methyl)-[1,1′-biphenyl]-3-yl)thiophen-3-yl)amino)-3-oxopropoxy)ethoxy)ethoxy)propanamide]
invasive phenotype induced by forced expression of pre-miR-21 [1]: rescued | invasive phenotype induced by forced expression of mutant pre-miR-21 [2]: insensitive | reduction of invasiveness [3]: ~30% | effect on mature and pre-miR-21 levels [4]: inactive
